In patent US20050011012A1, “Multifunctional antimicrobial dyes” (Regents of the University of California, priority 2003, published 2005):
Read-outs that look alike come from different tables or passages of the source.

Assays:
Escherichia coli = details: pH 3; for Antimicrobial efficacy of treated fabric, E. coli: Orlon treated with 1 mMol/L compound, 10^5~10^6 CFU/mL; for Reduction percentage of E. coli: Orlon treated with 1 mMol/L dye
Protocol: (§1) The dyeing of acrylic fabrics follows a traditional exhaustion dyeing procedure (Munn, The dyeing of synthetic-polymer and acetate fibres, England: Dyers Company Publications Trust (1979)). Dye solutions were prepared with the QAS-dyes of the present invention, sodium sulfate (2 g/L), and Triton X-100 (0.05%). The pH of the dyeing bath was adjusted to 3 by buffer solutions containing sulfuric acid, sodium acetate, and acetic acid. The bath ratio was kept at 1:50. The Orlon fabrics were immersed into the dyeing bath at initial dyeing temperatures for a certain period of time, and then fixed at 100° C. for another period of time to elevate the interactions between the fabrics and the QAS-dyes.
(§2) The antimicrobial activities of the treated Orlon fabrics were evaluated against Escherichia coli (E. coli, Gram-negative) and Staphylococcus aureus (S. aureus, Gram-positive) according to AATCC test method 100-1999. In this method, disposable petri dishes containing fabric swatches weighing about 1 g were challenged with 1.0±0.1 mL of bacteria inoculum. After a certain period of contact time, the challenged fabric swatches were transferred to 250 mL containers with 100 mL of sterilized water, and the resultant supernatant was diluted 10^1, 10^2, 10^3, and 10^4 times. Then, 100 μL of each dilution was placed onto nutrient agar and incubated at 37° C. for 18 hours. The same procedure was applied to an untreated Orlon fabric swatch as a control. Finally, viable bacteria colonies on the agar plate were counted, and the amount of bacterial reduction was calculated using Eq. (2): Reduction percentage(%)=(A-B)/A×100%, (2) where A represents the number of bacterial colonies in the control, and B represents the number of bacterial colonies in the treated Orlon fabrics.
(§3) The surface resistivity of the treated fabrics was measured by a portable surface resistivity/resistance meter purchase from Monroe Electronics, Inc (Model 272A). The visual color yields of the dyed fabrics were measured by GretagMacbeth™ Color-Eye® 7000A spectrophotometer. The visual color yields of the fabrics were expressed by K/S values, which were derived from the reflectance measurement. The treated fabric was washed in a Launder-Ometer® according to AATCC Test Method 61-2001 to evaluate the wash durability of the treated fabrics. In this method, one cycle of a Launder-Ometer wash is equivalent to five machine washes using a home laundry machine.

Staphylococcus aureus = details: Orlon treated with 1 mMol/L compound, pH 3, 10^5~10^6 CFU/mL, contact time 6 hrs
Protocol: as §1, §2, §3

[1] = DSC, 10° C./min, nitrogen
Protocol: Thermal stability analysis: Thermal analyses of the QAS-dyes shown in FIG. 2B were performed using a differential scanning calorimeter (DSC) (Shimadzu DSC-50) and a thermal gravimetric analyzer (TGA) (Shimadzu TGA-50). The dye samples were heated at 10° C./min. and nitrogen gas was chosen as the atmosphere.

[2] = for Relative hydrolytic stability among mono-QAS substituted dyes: acidic conditions, 100° C.
Protocol: Hydrolytic stability analysis: The dyes were dissolved in aqueous solutions at a concentration of 0.4-1 mMol/L, and the solutions were adjusted to various pH values by using sulfuric acid, acetic acid, sodium acetate, sodium bicarbonate, and/or sodium carbonate. The solutions were heated to the required temperatures. At different time intervals, solution samples were taken and measured by a HITACHI U-2000 spectrophotometer to obtain the UV-vis adsorption spectra. The results were compared with the spectra of original dye solutions to determine the stability of the dyes.
After hydrolysis, the precipitates formed in the dye solutions were filtered and thoroughly washed with deionized water. The resultant precipitates were recrystallized using acetone for NMR analysis. NMR spectra were recorded on a Varian Inova 400 spectrometer. The residual filtrate was extracted by chloroform, and the aqueous part was dried under vacuum at room temperature and analyzed by NMR.

Compound	Antimicrobial efficacy of treated fabric, E. coli (Escherichia coli; 0 washes, contact time 6 hrs) [%]	Antimicrobial efficacy of treated fabric, E. coli (Escherichia coli; 5 washes, contact time 6 hrs) [%]	Antimicrobial efficacy of treated fabric, E. coli (Escherichia coli; 10 washes, contact time 6 hrs) [%]	Antimicrobial efficacy of treated fabric, E. coli (Escherichia coli; 20 washes, contact time 6 hrs) [%]	Antimicrobial efficacy of treated fabric, S. aureus (Staphylococcus aureus; 0 washes) [%]	Antimicrobial efficacy of treated fabric, S. aureus (Staphylococcus aureus; 5 washes) [%]	Antimicrobial efficacy of treated fabric, S. aureus (Staphylococcus aureus; 10 washes) [%]	Antimicrobial efficacy of treated fabric, S. aureus (Staphylococcus aureus; 20 washes) [%]	Temperature up to which no obvious changes are observed (dyes stable below) [1]	Relative hydrolytic stability among mono-QAS substituted dyes [2]	also measured
CCCCCCCC[N+](C)(C)CC(=O)Nc1cccc2c1C(=O)c1ccccc1C2=O.[Cl-] [m-8]	98.6	44.0	0	0	92.4	37.5	0	0	up to 190 °C	lower stability	–
CCCCCCCCCCCC[N+](C)(C)CC(=O)Nc1cccc2c1C(=O)c1ccccc1C2=O.[Cl-] [m-12]	99.9	81.3	0	0	99.9	75.0	0	0	up to 190 °C	lowest stability	–
CCCC[N+](C)(C)CC(=O)Nc1cccc2c1C(=O)c1ccccc1C2=O.[Cl-] [m-4]	95.7	44.0	0	0	86.4	50.0	0	0	up to 190 °C	–	Time the dye solution was stable (almost unchanged visible spectra) ([2]; 0.4 mMol/L, pH 5, 100° C.): about six
CCCCCCCCCCCC[N+](C)(C)CC(=O)Nc1ccc(NC(=O)C[N+](C)(C)CCCCCCCCCCCC)c2c1C(=O)c1ccccc1C2=O.[Cl-].[Cl-] [bi-12]	99.9	99.3	60.0	0	99.9	81.8	45.5	0	–	–	Reduction percentage of E. coli (Escherichia coli; E. coli 10^5~10^6 CFU/mL, contact time 3 hrs): 93.3%; Reduction percentage of E. coli (Escherichia coli; E. coli 10^5~10^6 CFU/mL, contact time 6 hrs): 99.9%; Reduction percentage of E. coli (Escherichia coli; E. coli 10^5~10^6 CFU/mL, contact time 9 hrs): 93.3%; Reduction percentage of E. coli (Escherichia coli; E. coli 10^5~10^6 CFU/mL, contact time 12 hrs): 66.7%; Reduction percentage of E. coli (Escherichia coli; E. coli 10^6~10^7 CFU/mL, contact time 3 hrs): 92.5%; Reduction percentage of E. coli (Escherichia coli; E. coli 10^6~10^7 CFU/mL, contact time 6 hrs): 95.8%; Reduction percentage of E. coli (Escherichia coli; E. coli 10^6~10^7 CFU/mL, contact time 9 hrs): 83.3%; Reduction percentage of E. coli (Escherichia coli; E. coli 10^6~10^7 CFU/mL, contact time 12 hrs): 50%; Reduction percentage of E. coli (Escherichia coli; E. coli 10^7~10^8 CFU/mL, contact time 3 hrs): 86.7%; Reduction percentage of E. coli (Escherichia coli; E. coli 10^7~10^8 CFU/mL, contact time 6 hrs): 0%; Reduction percentage of E. coli (Escherichia coli; E. coli 10^7~10^8 CFU/mL, contact time 9 hrs): 0%; Reduction percentage of E. coli (Escherichia coli; E. coli 10^7~10^8 CFU/mL, contact time 12 hrs): 0%
CCCC[N+](C)(C)CC(=O)Nc1ccc(NC(=O)C[N+](C)(C)CCCC)c2c1C(=O)c1ccccc1C2=O.[Cl-].[Cl-] [bi-4]	97.1	37.5	0	0	87.5	36.4	0	0	–	–	–
CCCCCCCC[N+](C)(C)CC(=O)Nc1ccc(NC(=O)C[N+](C)(C)CCCCCCCC)c2c1C(=O)c1ccccc1C2=O.[Cl-].[Cl-] [bi-8]	98.6	50.0	46.7	0	93.9	50.0	37.5	0	–	–	–
